Our source for the IC50 values is patent publication US12686665B2, “Bicyclic fused ring derivative or salt thereof and pharmaceutical composition comprising same” (YUHAN CORPORATION, priority 2021, dated 2026).

Holding throughout (format): biochemical
Experiment [1] concerns the target T1, recombinant human DAO (diamine oxidase) (Homo sapiens, UniProt P19801).
T1 construct: purchased R&D systems
T1 sequence (P19801 20-751): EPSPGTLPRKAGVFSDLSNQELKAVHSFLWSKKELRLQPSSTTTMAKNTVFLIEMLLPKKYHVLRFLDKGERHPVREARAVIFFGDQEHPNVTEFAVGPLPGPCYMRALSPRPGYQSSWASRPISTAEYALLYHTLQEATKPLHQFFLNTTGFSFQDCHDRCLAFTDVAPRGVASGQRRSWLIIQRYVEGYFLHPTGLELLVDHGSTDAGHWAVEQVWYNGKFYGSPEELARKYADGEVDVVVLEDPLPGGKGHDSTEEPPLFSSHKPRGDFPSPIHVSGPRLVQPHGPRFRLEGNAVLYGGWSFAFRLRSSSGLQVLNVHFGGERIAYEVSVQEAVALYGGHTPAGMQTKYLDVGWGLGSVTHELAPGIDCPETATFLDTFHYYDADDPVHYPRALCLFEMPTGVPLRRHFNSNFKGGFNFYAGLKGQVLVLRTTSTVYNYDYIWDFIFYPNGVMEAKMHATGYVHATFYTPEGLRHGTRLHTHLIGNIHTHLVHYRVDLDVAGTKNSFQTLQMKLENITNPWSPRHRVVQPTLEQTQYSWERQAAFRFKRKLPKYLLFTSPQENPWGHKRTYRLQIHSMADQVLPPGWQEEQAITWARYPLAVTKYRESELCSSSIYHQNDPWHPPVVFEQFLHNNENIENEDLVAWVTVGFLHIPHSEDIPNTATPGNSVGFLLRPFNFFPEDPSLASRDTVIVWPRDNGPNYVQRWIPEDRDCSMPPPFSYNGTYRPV
Briefly: Amplex Red HRP-coupled amine oxidase assay, recombinant human DAO. As to conditions: 1 mM putrescine substrate, read-out: Inhibitory activity (IC50, nM) DAO. Summed up: (§1)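 Enzyme preincubated 60 min at 37 °C with compound (six-point curve, 1% DMSO final) in 50 mM sodium phosphate pH 7.4, then Amplex Red 400 μM and HRP 2 U/mL added with substrate: MAO-A 0.5 mM tyramine, MAO-B 1 mM benzylamine, DAO 1 mM putrescine. Resorufin fluorescence read after 1 h; IC50 by four-parameter logistic fit.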

Experiment [2] addresses T2, recombinant human Lysyl Oxidase-Like 2 (LOXL2) (Homo sapiens, UniProt Q9Y4K0).
T2 construct: purchased R&D systems
T2 sequence (Q9Y4K0 26-774): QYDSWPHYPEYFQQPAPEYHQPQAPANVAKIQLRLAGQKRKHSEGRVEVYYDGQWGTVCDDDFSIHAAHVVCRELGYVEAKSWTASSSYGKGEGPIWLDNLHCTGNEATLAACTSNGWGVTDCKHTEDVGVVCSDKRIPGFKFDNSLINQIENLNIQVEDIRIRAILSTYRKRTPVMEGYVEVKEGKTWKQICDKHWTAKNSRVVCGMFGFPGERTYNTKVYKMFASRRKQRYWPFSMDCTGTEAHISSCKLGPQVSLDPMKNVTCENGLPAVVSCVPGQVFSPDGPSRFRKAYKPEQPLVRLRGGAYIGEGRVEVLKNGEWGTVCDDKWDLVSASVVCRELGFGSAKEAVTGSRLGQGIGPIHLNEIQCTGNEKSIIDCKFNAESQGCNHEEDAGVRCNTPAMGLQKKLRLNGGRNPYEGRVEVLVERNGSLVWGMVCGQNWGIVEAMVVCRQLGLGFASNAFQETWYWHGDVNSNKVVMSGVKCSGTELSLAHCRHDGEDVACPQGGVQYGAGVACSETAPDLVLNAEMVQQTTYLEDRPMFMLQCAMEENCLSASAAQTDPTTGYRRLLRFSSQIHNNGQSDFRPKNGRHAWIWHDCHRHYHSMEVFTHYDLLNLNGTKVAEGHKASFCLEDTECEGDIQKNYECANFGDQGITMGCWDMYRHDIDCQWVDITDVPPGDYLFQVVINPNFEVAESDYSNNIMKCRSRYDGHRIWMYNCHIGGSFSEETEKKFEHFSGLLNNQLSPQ
As to the kind of experiment: Amplex Red HRP-coupled amine oxidase assay, recombinant human LOXL2. Particulars: 60 min incubation with enzyme at 37° C., putrescine substrate, read-out: Inhibitory activity (IC50, nM) human LOXL2. Summed up:
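Putrescine substrate (30 mM) in 50 mM sodium phosphate pH 7.4, 37 °C; compounds preincubated 60 min with enzyme, 1% DMSO final, six-point curves. H2O2 detected via 400 μM Amplex Red/2 U/mL HRP, fluorescence (ex 530/em 590 nm) after 1 h; IC50 from four-parameter logistic fit of % signal reduction.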

Experiment [3] has as its target T3, recombinant human MAO-B (monoamine oxidase-B) (Homo sapiens, UniProt P27338).
T3 construct: purchased Sigma-Aldrich
T3 sequence (P27338 1-520): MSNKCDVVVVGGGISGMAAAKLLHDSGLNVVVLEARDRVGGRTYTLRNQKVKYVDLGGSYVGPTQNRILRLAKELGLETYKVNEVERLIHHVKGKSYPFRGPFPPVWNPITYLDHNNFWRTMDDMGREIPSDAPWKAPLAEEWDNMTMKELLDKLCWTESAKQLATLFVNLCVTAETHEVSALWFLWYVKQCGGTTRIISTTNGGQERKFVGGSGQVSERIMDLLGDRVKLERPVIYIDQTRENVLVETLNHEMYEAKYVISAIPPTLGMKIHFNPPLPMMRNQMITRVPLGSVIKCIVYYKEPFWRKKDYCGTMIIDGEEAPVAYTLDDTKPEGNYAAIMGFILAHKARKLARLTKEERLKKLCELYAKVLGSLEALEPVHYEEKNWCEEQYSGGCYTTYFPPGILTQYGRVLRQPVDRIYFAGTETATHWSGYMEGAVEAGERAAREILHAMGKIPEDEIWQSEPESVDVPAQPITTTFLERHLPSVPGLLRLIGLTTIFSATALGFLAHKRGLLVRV
As to the kind of experiment: Amplex Red HRP-coupled amine oxidase assay, recombinant human MAO-B. Particulars: 1 mM benzylamine substrate, read-out: Inhibitory activity (IC50, nM) MAO-B. Summed up: as §1

The target of experiment [4] is T4, recombinant human MAO-A (monoamine oxidase-A) (Homo sapiens, UniProt P21397).
T4 construct: purchased Sigma-Aldrich
T4 sequence (P21397 1-527): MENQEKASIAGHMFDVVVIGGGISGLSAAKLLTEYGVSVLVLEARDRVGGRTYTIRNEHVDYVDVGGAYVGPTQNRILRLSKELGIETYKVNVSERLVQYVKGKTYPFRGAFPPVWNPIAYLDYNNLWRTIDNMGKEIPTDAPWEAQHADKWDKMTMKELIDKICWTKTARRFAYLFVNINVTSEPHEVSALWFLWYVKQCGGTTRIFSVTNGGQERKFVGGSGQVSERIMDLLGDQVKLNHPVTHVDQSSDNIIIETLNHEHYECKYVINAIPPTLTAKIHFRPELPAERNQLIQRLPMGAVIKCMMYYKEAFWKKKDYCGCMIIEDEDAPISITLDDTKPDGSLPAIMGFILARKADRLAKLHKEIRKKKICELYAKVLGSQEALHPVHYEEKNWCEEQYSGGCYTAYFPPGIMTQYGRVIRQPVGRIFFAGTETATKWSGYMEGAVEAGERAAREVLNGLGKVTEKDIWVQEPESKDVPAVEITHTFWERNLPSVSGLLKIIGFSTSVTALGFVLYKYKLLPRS
As to the kind of experiment: Amplex Red HRP-coupled amine oxidase assay, recombinant human MAO-A. As to conditions: 0.5 mM tyramine substrate, read-out: Inhibitory activity (IC50, nM) MAO-A. Summed up: as §1

Structures can show the parent of a compound that is named as a salt. Bounds are passed on as bounds.

`NC/C=C(\F)Cn1cnc2c(-c3cncc(F)c3)cc(C(F)(F)F)cc21` [Example 173, (Z)-3-fluoro-4-(4-(5-fluoropyridin-3-yl)-6-(trifluoromethyl)-1H-benzo[d]imidazol-1-yl)but-2-en-1-amine hydrochloride]: the IC50 in experiment [1] is 3730 nM; in experiment [2], 269 nM; in experiment [3], above 100000 nM; in experiment [4] it was 15400 nM.
For `CNS(=O)(=O)c1ccc(OC)c(-c2cc(C(=O)OC)cc3c2nnn3C/C(F)=C/CN)c1` [Example 117, methyl (Z)-1-(4-amino-2-fluorobut-2-en-1-yl)-4-(2-methoxy-5-(N-methylsulfamoyl)phenyl)-1H-benzo[d][1,2,3]triazol-6-carboxylate hydrochloride] the same measures were 4440 nM, 11.9 nM, 46600 nM and above 100000 nM.
On to `Cc1nc2c(-c3cccc(S(=O)(=O)N(C)C)c3)cc(C(=O)N(C)C)cc2n1C/C(F)=C/CN` [Example 76, (Z)-1-(4-amino-2-fluorobut-2-en-1-yl)-4-(3-(N,N-dimethylsulfamoyl)phenyl)-N,N,2-trimethyl-1H-benzo[d]imidazol-6-carboxamide hydrochloride], for which the IC50 in experiment [1] is 24600 nM; in experiment [2] it was 58 nM; in experiment [3], above 100000 nM; in experiment [4], 12400 nM.
In the case of `CNS(=O)(=O)c1cccc(-c2cccc3c2nnn3C/C(F)=C/CN)c1` [Example 111, (Z)-3-(1-(4-amino-2-fluorobut-2-en-1-yl)-1H-benzo[d][1,2,3]triazol-4-yl)-N-methylbenzenesulfonamide hydrochloride], the half-maximal inhibitory concentration (IC50) is 30700 nM in experiment [1], 35 nM in experiment [2], above 100000 nM in experiment [3] and above 100000 nM in experiment [4].
In the case of `CNS(=O)(=O)c1ccc(OC)c(-c2cccc3c2nnn3C/C(F)=C/CN)c1` [Example 105, (Z)-3-(1-(4-amino-2-fluorobut-2-en-1-yl)-1H-benzo[d][1,2,3]triazol-4-yl)-4-methoxy-N-methylbenzenesulfonamide hydrochloride], the IC50 in experiment [1] was 36000 nM; in experiment [2] it was 26 nM; in experiment [3], above 100000 nM; in experiment [4], 55100 nM.
For `Cc1cc(-c2cc(C#N)cc3c2ncn3C/C(F)=C/CN)n(C)n1` [Example 194, (Z)-1-(4-amino-2-fluorobut-2-en-1-yl)-4-(1,3-dimethyl-1H-pyrazol-5-yl)-1H-benzo[d]imidazol-6-carbonitrile hydrochloride] the same measures were 7590 nM, 105 nM, above 100000 nM and 36800 nM.
With `NC/C=C(\F)Cn1nnc2c(-c3cccc(S(=O)(=O)N4CCC(F)(F)C4)c3)cccc21` [Example 103, (Z)-4-(4-(3-((3,3-difluoropyrrolidin-1-yl)sulfonyl)phenyl)-1H-benzo[d][1,2,3]triazol-1-yl)-3-fluorobut-2-en-1-amine hydrochloride], the IC50 came out at 27900 nM in experiment [1], 25 nM in experiment [2], 23500 nM in experiment [3] and 9060 nM in experiment [4].
For `COC(=O)c1cc(-c2cccc(S(=O)(=O)N3CCCC3)c2)c2nc(C)n(C/C(F)=C/CN)c2c1` [Example 70, methyl (Z)-1-(4-amino-2-fluorobut-2-en-1-yl)-2-methyl-4-(3-(pyrrolidin-1-ylsulfonyl)phenyl)-1H-benzo[d]imidazol-6-carboxylate hydrochloride] the same measures were 2500 nM, 60 nM, above 100000 nM and 10300 nM.
For `COc1ccc(-c2cccc3c2nnn3C/C(F)=C/CN)cc1S(=O)(=O)N(C)C` [Example 102, (Z)-5-(1-(4-amino-2-fluorobut-2-en-1-yl)-1H-benzo[d][1,2,3]triazol-4-yl)-2-methoxy-N,N-dimethylbenzenesulfonamide hydrochloride] the same measures were 37400 nM, 17 nM, 12400 nM and 86600 nM.
For `CS(=O)(=O)c1cccc(-c2cc(C(F)(F)F)cc3c2ncn3C/C(F)=C/CN)c1` [Example 13, (Z)-3-fluoro-4-(4-(3-(methylsulfonyl)phenyl)-6-(trifluoromethyl)-1H-benzo[d]imidazol-1-yl) but-2-en-1-amine hydrochloride] the same measures were above 100000 nM, 104 nM, above 100000 nM and above 100000 nM.
Regarding `NC/C=C(\F)Cn1cnc2c(-c3cncnc3)cc(C(F)(F)F)cc21` [Example 175, (Z)-3-fluoro-4-(4-(pyrimidin-5-yl)-6-(trifluoromethyl)-1H-benzo[d]imidazol-1-yl)but-2-en-1-amine hydrochloride], the IC50 in experiment [1] is 2580 nM; in experiment [2], 259 nM; in experiment [3] it was above 100000 nM; in experiment [4], above 100000 nM.
As to `CNS(=O)(=O)c1cccc(-c2cccc3c2nc(C(F)(F)F)n3C/C(F)=C/CN)c1` [Example 53, (Z)-3-(1-(4-amino-2-fluorobut-2-en-1-yl)-2-(trifluoromethyl)-1H-benzo[d]imidazol-4-yl)-N-methylbenzenesulfonamide hydrochloride], the IC50 in experiment [1] was above 100000 nM; in experiment [2] it was 68 nM; in experiment [3] it was above 100000 nM; in experiment [4] it was above 100000 nM.
